What was measured:
RVH-421 (Melanoma) [1] = assay: Bliss excess, mean over the matrix (fraction); higher = more synergy
Procedure, shortened: (§1)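 Cell lines in DMEM/F12 or RPMI with 10% FBS were plated in 1536-well plates, held 24 hours at 37°C, 5% CO2, then given two-drug dose matrices for 72 hours (DMSO typically 0.2%). Viability was read by CellTiter-Glo 2.0 luminescence and scaled as inhibition from 0 (vehicle wells) to 1 (blank wells). Combination Emax is the second-highest inhibition in the matrix; Bliss excess is observed combination effect minus expected EA + EB − EA·EB, EA and EB being single-agent effects.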

[2] = test system: NCI-H1435 (Non-Small Cell Lung Carcinoma); assay: combination Emax (second highest fraction inhibited in the dose matrix, 72 h); higher = more inhibition; extreme values may be limits of the assay
Procedure, shortened: as §1

SK-MEL-24 (Melanoma) = assay: as above
Procedure, shortened: as §1

[3] = test system: Daudi (Burkitt's Lymphoma); assay: as above
Procedure, shortened: as §1

[4] = test system: JJN-3 (Plasma Cell Myeloma); assay: as above
Procedure, shortened: as §1

[5] = test system: KNS-62 (Squamous Cell Lung Carcinoma); assay: as above
Procedure, shortened: as §1

A375 (Melanoma) = assay: as above
Procedure, shortened: as §1

[6] = test system: SBC-3 (Small Cell Lung Carcinoma); assay: as above
Procedure, shortened: as §1

C32 (Melanoma) = assay: as above
Procedure, shortened: as §1

[7] = test system: IGROV-1 (Ovarian Carcinoma); assay: as above
Procedure, shortened: as §1

[8] = test system: RPMI-8402 (T-Lymphoblastic Leukemia); assay: as above
Procedure, shortened: as §1

[9] = test system: GRANTA-519 (B-Cell Non-Hodgkin's Lymphoma); assay: as above
Procedure, shortened: as §1

SK-N-DZ (Neuroblastoma) = assay: as above
Procedure, shortened: as §1

[10] = test system: BC-1 (B-Cell Non-Hodgkin's Lymphoma); assay: as above
Procedure, shortened: as §1

RVH-421 (Melanoma) [11] = assay: as above
Procedure, shortened: as §1

HT-144 (Melanoma) = assay: as above
Procedure, shortened: as §1

[12] = test system: CAL-85-1 (Breast Carcinoma); assay: as above
Procedure, shortened: as §1
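Throughout, for Bliss excess, mean over the matrix: after 72 h of two-drug dosing.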

Row | SMILES | Bliss excess (RVH-421 (Melanoma) [1]) | combination Emax [2] | combination Emax (SK-MEL-24 (Melanoma)) | combination Emax [3] | combination Emax [4] | combination Emax [5] | combination Emax (A375 (Melanoma)) | combination Emax [6] | combination Emax (C32 (Melanoma)) | combination Emax [7] | combination Emax [8] | combination Emax [9] | combination Emax (SK-N-DZ (Neuroblastoma)) | combination Emax [10] | combination Emax (RVH-421 (Melanoma) [11]) | combination Emax (HT-144 (Melanoma)) | combination Emax [12]
1 | Cc1c2c(nn1C)CSCc1cc(n(C)n1)CSc1cc(c3ccccc3c1)OCCCc1c(C(=O)O)n(C)c3c-2c(Cl)ccc13 [AZD5991] + C=CCn1c(=O)c2cnc(Nc3ccc(N4CCN(C)CC4)cc3)nc2n1-c1cccc(C(C)(C)O)n1 [AZD1775] (first compound max 1 µM, partner max 1 µM) | 0.0088 | 0.276 | 0.478 | 0.706 | 1 | 0.223 | 0.818 | 0.602 | 0.568 | 0.88 | 1 | 0.863 | 0.948 | 1 | 0.248 | 0.969 | 0.43
2 | Cc1c2c(nn1C)CSCc1cc(n(C)n1)CSc1cc(c3ccccc3c1)OCCCc1c(C(=O)O)n(C)c3c-2c(Cl)ccc13 [AZD5991] + CCN(CCO)CCCOc1ccc2c(Nc3cc(CC(=O)Nc4cccc(F)c4)[nH]n3)ncnc2c1 [AZD2811] (first compound max 1 µM, 7x7, partner max 1 µM) | -0.0055 | 0.313 | 0.362 | 0.806 | 1 | 0.244 | 0.746 | 0.531 | 0.445 | 0.346 | 1 | 0.464 | 0.293 | 1 | 0.214 | 0.927 | 0.267
3 | Cc1c2c(nn1C)CSCc1cc(n(C)n1)CSc1cc(c3ccccc3c1)OCCCc1c(C(=O)O)n(C)c3c-2c(Cl)ccc13 [AZD5991] + CN(C)CCCOc1ccc(-c2ccc3ncc4c(c3c2)n(C2CCOCC2)c(=O)n4C)cn1 [AZD0156] (first compound max 1 µM, 7x7, partner max 1 µM) | 0.0113 | 0.233 | 0.232 | 0.288 | 1 | 0.174 | 0.457 | 0.292 | 0.24 | 0.606 | 0.795 | 0.209 | 0.265 | 1 | 0.284 | 0.87 | 0.206
4 | Cc1c2c(nn1C)CSCc1cc(n(C)n1)CSc1cc(c3ccccc3c1)OCCCc1c(C(=O)O)n(C)c3c-2c(Cl)ccc13 [AZD5991] + C[C@@H]1COCCN1C2=NC(=NC(=C2)C3(CC3)[S@](=N)(=O)C)C4=C5C=CNC5=NC=C4 [AZD6738] (first compound max 1 µM, 7x7, partner max 10 µM) | 0.013 | 0.217 | 0.549 | 0.874 | 1 | 0.491 | 0.893 | 0.746 | 0.756 | 0.852 | 0.999 | 0.906 | 0.931 | 1 | 0.265 | 0.969 | 0.584
5 | Cc1c2c(nn1C)CSCc1cc(n(C)n1)CSc1cc(c3ccccc3c1)OCCCc1c(C(=O)O)n(C)c3c-2c(Cl)ccc13 [AZD5991] + C[C@@H](Nc1cc(F)cc(F)c1)c1cc(C(=O)N(C)C)cc2c(=O)cc(N3CCOCC3)oc12 [AZD8186] (first compound max 1 µM, 7x7, partner max 3 µM) | -0.0204 | 0.276 | 0.388 | 0.427 | 1 | 0.17 | 0.289 | 0.376 | 0.251 | 0.8 | 0.888 | 0.0698 | 0.232 | 1 | 0.517 | 0.901 | 0.243
6 | Cc1c2c(nn1C)CSCc1cc(n(C)n1)CSc1cc(c3ccccc3c1)OCCCc1c(C(=O)O)n(C)c3c-2c(Cl)ccc13 [AZD5991] + Cc1cc2ncnn2cc1Nc1ncc2c(n1)n(C1CCOCC1)c(=O)n2C [AZD7648] (first compound max 1 µM, 7x7, partner max 10 µM) | -0.0432 | 0.211 | 0.232 | 0.328 | 1 | 0.277 | 0.331 | 0.456 | 0.198 | 0.625 | 0.836 | 0.214 | 0.207 | 1 | 0.255 | 0.885 | 0.402
7 | Cc1c2c(nn1C)CSCc1cc(n(C)n1)CSc1cc(c3ccccc3c1)OCCCc1c(C(=O)O)n(C)c3c-2c(Cl)ccc13 [AZD5991] + Cn1cnc2c(F)c(Nc3ccc(Br)cc3Cl)c(C(=O)NOCCO)cc21 [Selumetinib] (first compound max 1 µM, 7x7, partner max 3 µM) | -0.0194 | 0.26 | 0.705 | 0.394 | 1 | 0.339 | 0.895 | 0.225 | 1 | 0.734 | 0.692 | 0.106 | 0.252 | 1 | 0.449 | 1 | 0.584
8 | CC(=O)Nc1cccc(-n2c(=O)n(C3CC3)c(=O)c3c(Nc4ccc(I)cc4F)n(C)c(=O)c(C)c32)c1 [Trametinib] + Cc1nc(-c2cn3c(n2)-c2ccc(-c4cnn(C(C)(C)C(N)=O)c4)cc2OCC3)n(C(C)C)n1 [Taselisib] (first compound max 1 µM, 7x7, partner max 10 µM) | 0.0732 | 0.896 | 0.997 | 0.523 | 0.532 | 0.827 | 0.935 | 0.703 | 1 | 0.966 | 0.777 | 0.189 | 0.521 | 0.546 | 0.638 | 1 | 0.975
9 | CC1(C)CCC(CN2CCN(c3ccc(C(=O)NS(=O)(=O)c4ccc(NCC5CCOCC5)c([N+](=O)[O-])c4)c(Oc4cnc5[nH]ccc5c4)c3)CC2)=C(c2ccc(Cl)cc2)C1 [Venetoclax] + C1CN(CCC1(C(=O)N[C@@H](CCO)C2=CC=C(C=C2)Cl)N)C3=NC=NC4=C3C=CN4 [Capivasertib] (first compound max 1 µM, 7x7, partner max 3 µM) | -0.0471 | 0.154 | 0.361 | 0.205 | 0.305 | 0.364 | 0.175 | 0.543 | 0.356 | 0.738 | 0.498 | 0.411 | 0.307 | 0.523 | 0.351 | 0.383 | 0.161
10 | CC1(C)CCC(CN2CCN(c3ccc(C(=O)NS(=O)(=O)c4ccc(NCC5CCOCC5)c([N+](=O)[O-])c4)c(Oc4cnc5[nH]ccc5c4)c3)CC2)=C(c2ccc(Cl)cc2)C1 [Venetoclax] + C=CCn1c(=O)c2cnc(Nc3ccc(N4CCN(C)CC4)cc3)nc2n1-c1cccc(C(C)(C)O)n1 [AZD1775] (first compound max 1 µM, partner max 1 µM) | -0.0875 | 0.35 | 0.401 | 0.663 | 0.693 | 0.544 | 0.505 | 0.899 | 0.546 | 0.819 | 1 | 1 | 0.999 | 1 | 0.183 | 0.509 | 0.473
11 | CC1(C)CCC(CN2CCN(c3ccc(C(=O)NS(=O)(=O)c4ccc(NCC5CCOCC5)c([N+](=O)[O-])c4)c(Oc4cnc5[nH]ccc5c4)c3)CC2)=C(c2ccc(Cl)cc2)C1 [Venetoclax] + CCN(CCO)CCCOc1ccc2c(Nc3cc(CC(=O)Nc4cccc(F)c4)[nH]n3)ncnc2c1 [AZD2811] (first compound max 1 µM, 7x7, partner max 1 µM) | -0.0636 | 0.161 | 0.248 | 0.366 | 0.806 | 0.275 | 0.371 | 0.766 | 0.385 | 0.255 | 0.735 | 0.925 | 0.552 | 0.674 | 0.164 | 0.266 | 0.156
12 | CC1(C)CCC(CN2CCN(c3ccc(C(=O)NS(=O)(=O)c4ccc(NCC5CCOCC5)c([N+](=O)[O-])c4)c(Oc4cnc5[nH]ccc5c4)c3)CC2)=C(c2ccc(Cl)cc2)C1 [Venetoclax] + CN(C)CCCOc1ccc(-c2ccc3ncc4c(c3c2)n(C2CCOCC2)c(=O)n4C)cn1 [AZD0156] (first compound max 1 µM, 7x7, partner max 1 µM) | -0.0658 | 0.17 | 0.281 | 0.054 | 0.235 | 0.262 | 0.216 | 0.766 | 0.413 | 0.535 | 0.188 | 0.388 | 0.256 | 0.555 | 0.16 | 0.217 | 0.136
13 | CC1(C)CCC(CN2CCN(c3ccc(C(=O)NS(=O)(=O)c4ccc(NCC5CCOCC5)c([N+](=O)[O-])c4)c(Oc4cnc5[nH]ccc5c4)c3)CC2)=C(c2ccc(Cl)cc2)C1 [Venetoclax] + COc1cc(Nc2ncc3c(n2)-c2ccc(Cl)cc2C(c2c(F)cccc2OC)=NC3)ccc1C(=O)O [Alisertib] (first compound max 1 µM, 7x7, partner max 10 µM) | -0.058 | 0.287 | 0.401 | 0.787 | 0.939 | 0.283 | 0.466 | 0.942 | 0.487 | 0.789 | 0.718 | 0.969 | 0.888 | 0.943 | 0.0752 | 0.358 | 0.438
14 | CC1(C)CCC(CN2CCN(c3ccc(C(=O)NS(=O)(=O)c4ccc(NCC5CCOCC5)c([N+](=O)[O-])c4)c(Oc4cnc5[nH]ccc5c4)c3)CC2)=C(c2ccc(Cl)cc2)C1 [Venetoclax] + C[C@@H]1COCCN1C2=NC(=NC(=C2)C3(CC3)[S@](=N)(=O)C)C4=C5C=CNC5=NC=C4 [AZD6738] (first compound max 1 µM, 7x7, partner max 10 µM) | -0.0286 | 0.177 | 0.454 | 0.725 | 0.791 | 0.523 | 0.674 | 0.926 | 0.666 | 0.759 | 0.992 | 0.99 | 0.946 | 0.933 | 0.26 | 0.718 | 0.571
